The text below walks through data of patent publication EP0987275B1, “Molecules that home to a selected organ or tissue in vivo” (LA JOLLA CANCER RESEARCH FOUNDATION, priority 1995, dated 2008).

Assay [1] has as its system Human 435 breast carcinoma cells. Description: Competition of RGD phage tumor homing by coinjected free peptide. The following applies: coinjection of 500 µg free peptide. The assay is classed as in vivo, nude mice. The method, then:
Human 435 breast carcinoma cells were inoculated into the mammary fat pad of nude mice. When the tumors attained a diameter of about 1 cm, phage expressing a specific RGD-containing peptide were administered to the tumor bearing mouse. Similar results to those discussed below also were obtained with nude mice bearing tumors formed by implantation of human melanoma C8161 cells or by implantation of mouse B16 melanoma cells.
1 x 10^9 phage expressing the RGD-containing peptide, […] (SEQ ID NO: 57; see, Koivunen et al., supra, 1995) or control (insertless) phage were injected intravenously (iv) into the mice and allowed to circulate for 4 min. The mice then were snap frozen while under anesthesia, and various organs, including tumor, brain and kidney, were removed and the phage present in the organs was quantitated (see Pasqualini and Ruoslahti, supra, 1996).

The subject of another assay is brain. Nature of the assay: Homing of 125I-peptide/RBC complex to brain, with peptide competition. The assay is classed as in vivo, mouse. The following applies: 10 mM unlabeled peptide. How it is done:
The synthetic cyclic CLSSRLDAC (SEQ ID NO: 3) peptide (1 mg) was labeled with iodine-125 using the Bolton and Hunter reagent (Amersham; Arlington Heights IL). Labeled peptide was purified by reverse phase HPLC on Sep-Pak™ cartridges (Waters, Millipore Corp.; Milford PA) and the ^125I-peptide (200 µg) was coupled to 1 ml glutaraldehyde-stabilized sheep RBC (Sigma Chemical Co.; St. Louis MO) according to the manufacturer's instructions.
Fifty µl ^125I-peptide/RBC (200,000 cpm), alone or with 10 mM of unlabeled CLSSRLDAC (SEQ ID NO: 3), which is a brain homing peptide, or CVRLNSLAC (SEQ ID NO: 43), which has no brain homing activity, was injected into the tail vein. After 2 min, each mouse was perfused through the heart with 50 ml DMEM and the brain and kidney were removed and assayed for radioactivity.

Regarding ACDCRGDCFCG, in assay [1], the “reduction of the amount of RGD phage in the tumor by coinjected free peptide” value is “about tenfold”. Regarding CVRLNSLAC, in the assay on brain, the “effect of coadministered unlabeled peptide on brain homing of the CLSSRLDAC/RBC complex” value is “no effect” and the “effect of coadministered unlabeled peptide on complex localizing to the kidney” value is reported as “no effect”.
